From patent US6964983B2, “Compounds that modulate PPAR activity and methods for their preparation” (Warner-Lambert Company, LLC, priority 2002, dated 2005)

Assays:
hPPARβ = biological target: T1, hPPARβ (Homo sapiens, UniProt Q03181); assay: Transient transfection assay in HepG2 cells, Gal4-hPPARβ chimeric receptor, luciferase reporter; assay type: cell-based; settings: Hep G2-hBeta EC50, 24 hours incubation; read-out: EC50β nM (Group)
T1 sequence (Q03181 171-441 limits assumed): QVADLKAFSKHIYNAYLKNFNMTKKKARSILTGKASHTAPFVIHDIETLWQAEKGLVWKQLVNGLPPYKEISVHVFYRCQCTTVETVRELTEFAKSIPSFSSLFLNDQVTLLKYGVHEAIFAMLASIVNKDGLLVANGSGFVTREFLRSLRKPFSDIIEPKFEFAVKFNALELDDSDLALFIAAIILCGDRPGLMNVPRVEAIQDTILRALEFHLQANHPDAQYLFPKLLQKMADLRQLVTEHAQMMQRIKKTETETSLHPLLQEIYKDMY
Procedure: (§1) 1. Test A. Transient Transfections Assay using the HepG2 Hepatoma Cell Line.
(§2) HepG2 cells were transiently transfected with an expression plasmids encoding hPPARα, hPPARβ or mPPARγ chimeric receptors and a reporter containing the yeast upstream activating sequence (UAS) upstream of the viral E1B promoter controlling a luciferase reporter gene. In addition, the plasmid pRSVβ-gal was used to control for transfection efficiency. HepG2 cells were grown in DMEM supplemented with 10% FBS and 1 μM non-essential amino acid. On the first day, cells were split into 100 mm dishes at 2.5×10^6/dish and incubated overnight at 37° C./5% CO2. On the second day the cells were transiently transfected with plasmid DNA encoding a chimeric receptor, the luciferase reporter gene; and β-gal. For each 100 mm dish, 15 μg of lucifease reporter (PG5E1b) DNA, 15 μg of Gal4-PPAR chimeric receptor DNA, and 1.5 μg of β-gal plasmid DNA were mixed with 1.4 ml of opti-MEM in the tube. 28 μl of LipoFectamine-2000 reagent was added to 1.4 ml of opti-MEM in the tube, and incubate for 5 min at RT. The diluted Lipofectamine-2000 reagent was combined with the DNA mixture, and incubate for 20 min at RT. After fresh medium was added to each 100 mm dish of cells, 2.8 ml of Lipofectamine2000-DNA mixture was added dropwise to the 100 mm dish containing 14 ml of medium, and incubate 37° C. overnight. On day three cells were trypsinized off the 100 mm dishes and re-plated on 96 well plates. Cells were plated at 2.5×10^4 cells per well in 150 μl of media and 50 μl of compound diluted by media was added. The test compound added were in the range from 50 μM to 50 pM. After addition of compounds, the plates were incubated at 37° C. for 24 hours. Subsequently cells were washed with once with 100 μl of PBS, lysed, and processed for measuring luciferase and β-gal activity using Dual-Light luciferase kit from Tropix ®, according to the manufacturer's recommendations, on an EG&G Bethold MicroLumat LB96P luminometer. EC50 values were obtained using the GraphPad Prism™ program.

hPPARα = biological target: T2, hPPARα (Homo sapiens, UniProt Q07869); assay: Transient transfection assay in HepG2 cells, Gal4-hPPARα chimeric receptor, luciferase reporter; assay type: cell-based; settings: Hep G2-hAlpha EC50, 24 hours incubation; read-out: EC50α nM (Group)
T2 sequence (Q07869 200-468 limits assumed): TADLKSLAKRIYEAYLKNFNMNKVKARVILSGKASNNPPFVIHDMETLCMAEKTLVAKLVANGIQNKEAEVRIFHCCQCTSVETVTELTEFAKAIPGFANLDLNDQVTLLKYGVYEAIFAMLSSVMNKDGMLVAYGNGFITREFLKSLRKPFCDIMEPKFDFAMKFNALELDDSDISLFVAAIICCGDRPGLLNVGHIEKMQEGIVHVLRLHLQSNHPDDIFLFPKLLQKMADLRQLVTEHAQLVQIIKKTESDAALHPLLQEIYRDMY
Procedure: as §1, §2

Row | Structure (SMILES) | EC50 (hPPARβ) | EC50 (hPPARα) | melting point
1 | Cc1cc(SCc2ccc(-c3ccc(C(F)(F)F)cc3)cc2)c2c(c1OCC(=O)O)CCC2 [Example 28, [5-Methyl-7-(4′-trifluoromethyl-biphenyl-4-ylmethylsulfanyl)-indan-4-yloxy]-acetic acid] | 1000 to 2000 nM | 1000 to 2000 nM | 177 °C
2 | COc1cc(OCC(=O)O)c(C)cc1SCc1ccc(-c2ccc(C(F)(F)F)cn2)cc1 [Example 18, {5-Methoxy-2-methyl-4-[4-(5-trifluoromethyl-pyridin-2-yl)-benzylsulfanyl]-phenoxy}-acetic acid] | < 300 nM | > 5000 nM | 225 °C (dec.)
3 | Cc1cc(SCc2ccc(OCc3ccc(Cl)cc3Cl)cc2)ccc1OCC(=O)O [Example 32, {4-[4-(2,4-Dichloro-benzyloxy)-benzylsulfanyl]-2-methyl-phenoxy}-acetic acid] | 300 to 500 nM | 1000 to 2000 nM | 143 to 145 °C
4 | Cc1cc(SCc2ccc(OCc3ccc(OC(F)(F)F)cc3)cc2)ccc1OCC(=O)O [Example 35, {2-Methyl-4-[4-(4-trifluoromethoxy-benzyloxy)-benzylsulfanyl]-phenoxy}-acetic acid] | 300 to 500 nM | < 300 nM | 141 to 142 °C
5 | Cc1cc(SCc2ccc(OCc3ccc(C(C)(C)C)cc3)cc2)ccc1OCC(=O)O [Example 34, {4-[4-(4-tert-Butyl-benzyloxy)-benzylsulfanyl]-2-methyl-phenoxy}-acetic acid] | < 300 nM | < 300 nM | 135 to 137 °C
6 | COc1cc(OCC(=O)O)c(C)cc1SCc1ccc(-c2ccc(C(F)(F)F)cc2)nc1 [Example 19, {5-Methoxy-2-methyl-4-[6-(4-trifluoromethyl-phenyl)-pyridin-3-ylmethylsulfanyl]-phenoxy}-acetic acid] | < 300 nM | < 300 nM | 203 °C (dec.)
7 | COc1cc(OCC(=O)O)c(C)cc1SCc1ccc(-c2ccccc2)cc1 [Example 1, [4-(Biphenyl-4-ylmethylsulfanyl)-5-methoxy-2-methyl-phenoxy]-acetic acid] | < 300 nM | < 300 nM | 60 to 62 °C
8 | COc1cc(OCC(=O)O)c(C)cc1SCc1ccc(OCc2ccc(C(F)(F)F)cc2)cc1 [Example 14, {5-Methoxy-2-methyl-4-[4-(4-trifluoromethyl-benzyloxy)-benzylsulfanyl]-phenoxy}-acetic acid] |  | < 300 nM | 145 °C
9 | COc1cc(OCC(=O)O)c(C)cc1SCc1ccc(/C=C/c2cccc(F)c2)cc1 [Example 29, (4-{4-[2-(3-Fluoro-phenyl)-vinyl]-benzylsulfanyl}-5-methoxy-2-methyl-phenoxy)-acetic acid] | < 300 nM | < 300 nM | 154 °C (dec.)
10 | Cc1cc(SCc2ccc(-c3ccc(C(F)(F)F)cn3)cc2)c2c(c1OCC(=O)O)CCO2 [Example 92, {5-Methyl-7-[4-(5-trifluoromethyl-pyridin-2-yl)-benzylsulfanyl]-2,3-dihydro-benzofuran-4-yxoly}-acetic acid] | < 300 nM | < 300 nM | 155 to 157 °C
11 | Cc1cc(SCc2ccc(-c3ccc(C(F)(F)F)cn3)cc2)c2c(c1OCC(=O)O)CCC2 [Example 27, {5-Methyl-7-[4-(5-trifluoromethyl-pyridin-2-yl)-benzylsulfanyl]-indan-4-yloxy}-acetic acid] | 2000 to 5000 nM | 500 to 1000 nM | 186 °C
12 | O=C(O)COc1ccc(SCc2cc(-c3ccc(Cl)cc3)on2)c2c1CCC2 [Example 97, {7-[5-(4-Chloro-phenyl)-isoxazol-3-ylmethylsulfanyl]-indan-4-yloxy}-acetic acid] | 500 to 1000 nM | > 5000 nM | 157 to 159 °C
13 | O=C(O)COc1ccc(SCc2cccc(OCc3ccc(C(F)(F)F)cc3)c2)c2c1CCCO2 [Example 84, {8-[3-(4-Trifluoromethyl-benzyloxy)-benzylsulfanyl]-chroman-5-yloxy}-acetic acid] |  | > 5000 nM | 113 to 115 °C
14 | COc1ccc(COc2ccc(CSc3ccc(OCC(=O)O)c(C)c3)cc2)cc1 [Example 33, {4-[4-(4-Methoxy-benzyloxy)-benzylsulfanyl]-2-methyl-phenoxy}-acetic acid] | 1000 to 2000 nM | 1000 to 2000 nM | 150 to 152 °C
15 | O=C(O)COc1ccc(SCc2ccccc2OCc2ccc(C(F)(F)F)cc2)c2c1CCC2 [Example 81, {7-[2-(4-Trifluoromethyl-benzyloxy)-benzylsulfanyl]-indan-4-yloxy}-acetic acid] | < 300 nM | > 5000 nM | 150 to 152 °C
16 | Cc1cc(CCc2ccc(-c3ccc(C(F)(F)F)cc3)cc2)ccc1OCC(=O)O [Example 25, {2-Methyl-4-[2-(4′-trifluoromethyl-biphenyl-4-yl)-ethyl]-phenoxy}-acetic acid] | 2000 to 5000 nM | 1000 to 2000 nM | 174 to 176 °C
17 | O=C(O)COc1ccc(SCc2ccc(OCc3ccc(Cl)c(C(F)(F)F)c3)cc2)c2c1CCC2 [Example 73, {7-[4-(4-Chloro-3-trifluoromethyl-benzyloxy)-benzylsulfanyl]-indan-4-yloxy}-acetic acid] | < 300 nM | 2000 to 5000 nM | 151 to 152 °C
18 | O=C(O)COc1ccc(SCc2ccc(OCc3ccc(Cl)cc3Cl)cc2)c2c1CCC2 [Example 62, {7-[4-(2,4-Dichloro-benzyloxy)-benzylsulfanyl]-indan-4-yloxy}-acetic acid] | 1000 to 2000 nM | > 5000 nM | 149 to 150 °C
19 | Cc1cc(SCc2ccc(-c3ccc(C(F)(F)F)cc3)cc2)c(Cl)cc1OCC(=O)O [Example 20, [5-Chloro-2-methyl-4-(4′-trifluoromethyl-biphenyl-4-ylmethylsulfanyl)-phenoxy]-acetic acid] | < 300 nM | 2000 to 5000 nM | 161 to 162 °C
20 | O=C(O)COc1ccc(SCc2ccc(OCc3ccc(C(F)(F)F)cc3)cc2)c2c1CCC2 [Example 63, {7-[4-(4-Trifluoromethyl-benzyloxy)-benzylsulfanyl]-indan-4-yloxy}-acetic acid] |  | 2000 to 5000 nM | 145 °C
21 | Cc1cc(SCc2ccc(OCc3ccc(F)cc3)cc2)ccc1OCC(=O)O [Example 57, {4-[4-(4-Fluoro-benzyloxy)-benzylsulfanyl]-2-methyl-phenoxy}-acetic acid] | 2000 to 5000 nM | 1000 to 2000 nM | 154 to 155 °C
22 | O=C(O)COc1ccc(SCc2cccc(OCc3ccc(C(F)(F)F)cc3)c2)c2c1CCC2 [Example 79, {7-[3-(4-Trifluoromethyl-benzyloxy)-benzylsulfanyl]-indan-4-yloxy}-acetic acid] | 300 to 500 nM | > 5000 nM | 145 to 146 °C
23 | COc1cc(OCC(=O)O)c(C)cc1SCc1cccc(-c2ccc(C(F)(F)F)cc2)c1 [Example 49, [5-Methoxy-2-methyl-4-(4′-trifluoromethyl-biphenyl-3-ylmethylsulfanyl)-phenoxy]-acetic acid] | < 300 nM | 300 to 500 nM | 
24 | Cc1cc(SCc2ccc(-c3ccc(C(F)(F)F)cn3)cc2)ccc1OCC(=O)O [Example 30, {2-Methyl-4-[4-(5-trifluoromethyl-pyridin-2-yl)-benzylsulfanyl]-phenoxy}-acetic acid] | 1000 to 2000 nM | 1000 to 2000 nM | 
